Where a SMILES comes first, the peptide text is derived from it. Bridges are numbered along the chain shown (N, C = ends).
Experiments:
P. aeruginosa PAO1 = test: Antimicrobial assay, broth microdilution MIC; type: cell-based, Pseudomonas aeruginosa; settings: P. aeruginosa PAO1, Gram -, MH medium with NaCl, 24 h 37 °C, median of three independent triplicated experiments
Method: (§1) Bacterial test cultures were grown in the Mueller-Hinton (MH) medium at 37 °C to mid-log phase and then diluted with the 2 x MH medium supplemented with 1.8% NaCl. 50 µL of the bacterial suspension with a final cell concentration of 10^6 CFU/mL were added to aliquots of 50 µL of the peptide solutions and serially diluted with sterilized 0.1% bovine serum albumin in 96-well flat-bottom polystyrene microplates (Eppendorf, Hamburg, Germany). Bacterial cells were incubated for 24 h at 37 °C and 900 rpm on the plate thermoshaker (Biosan, Riga, Latvia). The minimum inhibitory concentrations (MIC) were determined as the lowest peptide concentration that prevented growth of a test microorganism observed as visible turbidity. The results were expressed as median values of three independent triplicated experiments. Assessment of antimicrobial activities of the recombinant PM III, other polyphemusins, and tachyplesins was conducted against Gram-negative (Escherichia coli ML-35p, Klebsiella pneumoniae (clinical isolate, CI 287), Pseudomonas aeruginosa PAO1) and Gram-positive (Staphylococcus aureus ATCC 29213, Staphylococcus aureus 209P, Bacillus subtilis B-886, Micrococcus luteus B-1314) bacteria.

[1] = tested on: A549 (human lung carcinoma cells); type: cell-based; settings: MTT after 48 h, DMEM/F12 with 10% FBS, mean ± SD of at least three independent experiments
Method: Cytotoxic activities of PM III, its isoforms, and tachyplesins against seven human cell lines were evaluated. Four cancer (HL-60 acute promyelocytic leukemia, HeLa cervix adenocarcinoma, SK-BR-3 breast adenocarcinoma, A549 lung carcinoma), one transformed (HEK 293T transformed human embryonic kidney), and two normal human cell lines (HEF human embryonic fibroblasts and NHA normal human astrocytes) were used for these experiments. Cytotoxicity was measured by incubating the cells with serial dilutions of PM I, PM II, PM III, TP I, TP II, or TP III samples followed by MTT assay after 48 h. The half-maximal inhibitory concentrations (IC50) were measured as the peptide concentration at which cell viability was reduced by 50% in comparison to untreated cells (Table 3).
The following tumor and transformed cell lines were used in this study: HL-60 (acute promyelocytic leukemia), HeLa (human cervix adenocarcinoma cells), SK-BR-3 (human breast adenocarcinoma cells), A549 (human lung carcinoma cells), HEK 293T (transformed human embryonic kidney cells), HEF (human embryonic fibroblasts), and NHA (normal human astrocytes) were used as normal cell lines. Tumor and transformed cell lines were obtained from the American Type Culture Collection (ATCC; www.atcc.org). Primary cells HEF (normal human embryonic fibroblasts derived from human embryonic stem cells) and NHA (normal human astrocytes derived from human fetal brain tissue) were obtained and cultured according to the corresponding protocol. Briefly, cells were cultured in DMEM/F12 (1:1) or RPMI-1640 medium containing 10% fetal bovine serum (Invitrogen, USA) at 37 °C in the atmosphere containing 5% CO2 and 95% air according to standard mammalian tissue culture protocols and using a sterile technique. All cell lines were tested by using the LookOut® Mycoplasma PCR Detection Kit (Sigma-Aldrich, St. Louis, MO, USA) according to the manufacturer’s protocol and found to be free of Mycoplasma infection.
The colorimetric 3-(4,5-dimethylthiazol-2-yl)-2,5-diphenyltetrazolium bromide (MTT) dye reduction assay was used to determine the cytotoxicity of the polyphemusins and tachyplesins. Cells (3 × 10^3–6 × 10^3 per well) were placed into 96-well plates in Dulbecco’s modified Eagle’s medium (DMEM/F12) supplemented with 10% fetal bovine serum (FBS). After incubation in the atmosphere containing 5% CO2 and 95% air at 37 °C overnight, the media were discarded, and polyphemusins or tachyplesins solutions were added to the cell cultures up to final concentrations of 2.5, 5, 10, 25, and 50 μM in a final volume of 0.1 mL DMEM/F12 with 10% FBS. HL-60 cells (4 × 10^4 in 50 μL) were added to two-time serial dilutions of polyphemusins solutions at a final concentration of 1.25, 2.5, 5, 10, 25, and 50 μM in 50 μL RPMI-1640 with 10% FBS. 48 hours later, 20 μL of MTT (5 mg/mL) was added into each well and the plates were incubated for 3 h at 37 °C. The plates with HL-60 cells were centrifuged for 10 min at 300 g. The media were discarded and 0.1 mL of dimethyl sulfoxide and isopropanol mixture at a ratio of 1:1 (v/v) was added to each well to dissolve the crystallized formazan. The absorbance at 570 nm was measured by a microplate reader (Eppendorf, Hamburg, Germany).

[2] = tested on: Gram-negative and Gram-positive bacteria; settings: natural and synthetic peptides; cited from earlier work
Method: Our experimental data for the obtained recombinant PM I are in line with those obtained earlier for synthetic PM I against Gram-negative and Gram-positive bacteria (with reported MICs not exceeding 1 μM).

[3] = tested on: Gram-positive and Gram-negative bacteria; test: Antimicrobial assay, MIC summarised over the panel of strains; type: cell-based; settings: E. coli ML35p, K. pneumoniae (CI 287) and S. aureus 209P
Method: as §1

| SMILES | MICs (P. aeruginosa PAO1) [µM] | IC50 [1] [µM] | MICs [2] | reduction in activity compared to PM I, TP I, and TP III [3] [fold] |
| --- | --- | --- | --- | --- |
| CC(C)[C@@H]1NC(=O)[C@H](CCCNC(=N)N)NC(=O)[C@H](Cc2ccccc2)NC(=O)[C@@H](NC(=O)[C@H](Cc2c[nH]c3ccccc23)NC(=O)[C@H](CCCNC(=N)N)NC(=O)[C@@H](N)CCCNC(=N)N)CSSC[C@@H](C(=O)N[C@@H](CCCNC(=N)N)C(=O)O)NC(=O)[C@H](CCCCN)NC(=O)[C@H](CCCNC(=N)N)NC(=O)[C@H](Cc2ccc(O)cc2)NC(=O)[C@@H]2CSSC[C@H](NC1=O)C(=O)N[C@@H](Cc1ccc(O)cc1)C(=O)N[C@@H](CCCNC(=N)N)C(=O)NCC(=O)N[C@@H](Cc1ccccc1)C(=O)N2 [PM I, polyphemusin I] (H-RRWCFRVCYRGFCYRKCR-OH; disulfide 4-17, 8-13 (inferred); N-terminus assumed) | 0.5 | 8.8 ± 1.3 | exceeding 1 μM |  |
| CC(C)[C@@H]1NC(=O)[C@H](CCCNC(=N)N)NC(=O)[C@H](Cc2ccccc2)NC(=O)[C@@H](NC(=O)[C@H](Cc2c[nH]c3ccccc23)NC(=O)[C@H](CCCNC(=N)N)NC(=O)[C@@H](N)CCCNC(=N)N)CSSC[C@@H](C(=O)N[C@@H](CCCNC(=N)N)C(=O)O)NC(=O)[C@H](CCCCN)NC(=O)[C@H](CCCNC(=N)N)NC(=O)[C@H](Cc2ccc(O)cc2)NC(=O)[C@@H]2CSSC[C@H](NC1=O)C(=O)N[C@@H](Cc1ccc(O)cc1)C(=O)N[C@@H](CCCCN)C(=O)NCC(=O)N[C@@H](Cc1ccccc1)C(=O)N2 [PM II, polyphemusin II] (H-RRWCFRVCYKGFCYRKCR-OH; disulfide 4-17, 8-13 (inferred); N-terminus assumed) | 0.5 | 10.8 ± 1.9 | exceeding 1 μM |  |
| CC(C)[C@@H]1NC(=O)[C@H](CCCNC(=N)N)NC(=O)[C@H](Cc2ccccc2)NC(=O)[C@@H](NC(=O)CNC(=O)[C@H](CCCNC(=N)N)NC(=O)[C@@H](N)CCCNC(=N)N)CSSC[C@@H](C(=O)N[C@@H](CCCNC(=N)N)C(=O)O)NC(=O)[C@H](CCCNC(=N)N)NC(=O)[C@H](CCC(N)=O)NC(=O)[C@H](Cc2ccccc2)NC(=O)[C@@H]2CSSC[C@H](NC1=O)C(=O)N[C@@H](Cc1ccc(O)cc1)C(=O)N[C@@H](CCCNC(=N)N)C(=O)NCC(=O)N[C@@H](Cc1ccccc1)C(=O)N2 [PM III, polyphemusin III] (H-RRGCFRVCYRGFCFQRCR-OH; disulfide 4-17, 8-13 (inferred); N-terminus assumed) | 0.5 |  |  | 4 |
| CC[C@H](C)[C@@H]1NC(=O)CNC(=O)[C@H](CCCNC(=N)N)NC(=O)[C@H](Cc2ccc(O)cc2)NC(=O)[C@@H]2CSSC[C@H](NC1=O)C(=O)N[C@@H](Cc1ccc(O)cc1)C(=O)N[C@@H](CCCNC(=N)N)C(=O)N[C@@H](CCCNC(=N)N)C(=O)N[C@H](C(=O)N[C@@H](CCCNC(=N)N)C(=O)O)CSSC[C@H](NC(=O)[C@H](Cc1c[nH]c3ccccc13)NC(=O)[C@@H](N)CCCCN)C(=O)N[C@@H](Cc1ccccc1)C(=O)N[C@@H](CCCNC(=N)N)C(=O)N[C@@H](C(C)C)C(=O)N2 [TP I, tachyplesin I] (H-KWCFRVCYRGICYRRCR-OH; disulfide 3-16, 7-12 (inferred); N-terminus assumed) | 0.5 | 26.5 ± 1.2 | exceeding 1 μM |  |
| CC[C@H](C)[C@@H]1NC(=O)CNC(=O)[C@H](CCCNC(=N)N)NC(=O)[C@H](Cc2ccc(O)cc2)NC(=O)[C@@H]2CSSC[C@H](NC1=O)C(=O)N[C@@H](Cc1ccc(O)cc1)C(=O)N[C@@H](CCCNC(=N)N)C(=O)N[C@@H](CCCCN)C(=O)N[C@H](C(=O)N[C@@H](CCCNC(=N)N)C(=O)O)CSSC[C@H](NC(=O)[C@H](Cc1c[nH]c3ccccc13)NC(=O)[C@@H](N)CCCNC(=N)N)C(=O)N[C@@H](Cc1ccccc1)C(=O)N[C@@H](CCCNC(=N)N)C(=O)N[C@@H](C(C)C)C(=O)N2 [TP II, tachyplesin II] (H-RWCFRVCYRGICYRKCR-OH; disulfide 3-16, 7-12 (inferred); N-terminus assumed) | 0.5 | 28.1 ± 1.7 | exceeding 1 μM |  |
| CC[C@H](C)[C@@H]1NC(=O)CNC(=O)[C@H](CCCNC(=N)N)NC(=O)[C@H](Cc2ccc(O)cc2)NC(=O)[C@@H]2CSSC[C@H](NC1=O)C(=O)N[C@@H](Cc1ccc(O)cc1)C(=O)N[C@@H](CCCNC(=N)N)C(=O)N[C@@H](CCCCN)C(=O)N[C@H](C(=O)N[C@@H](CCCNC(=N)N)C(=O)O)CSSC[C@H](NC(=O)[C@H](Cc1c[nH]c3ccccc13)NC(=O)[C@@H](N)CCCCN)C(=O)N[C@@H](Cc1ccccc1)C(=O)N[C@@H](CCCNC(=N)N)C(=O)N[C@@H](C(C)C)C(=O)N2 [TP III, tachyplesin III] (H-KWCFRVCYRGICYRKCR-OH; disulfide 3-16, 7-12 (inferred); N-terminus assumed) | 0.5 | 15.3 ± 1 |  |  |
